24 compounds from US8673910B2, “Proteasome inhibitors for selectively inducing apoptosis in cancer cells” (H. Lee Moffitt Cancer Center and Research Institute, priority 2008, dated 2014) can be followed below.

Data set [1] concerns the target T1, chymotrypsin-like (CT-L) activity of purified 20S rabbit proteasome (Oryctolagus cuniculus, UniProt G1T4Q9).
T1 sequence (G1T4Q9 1-263): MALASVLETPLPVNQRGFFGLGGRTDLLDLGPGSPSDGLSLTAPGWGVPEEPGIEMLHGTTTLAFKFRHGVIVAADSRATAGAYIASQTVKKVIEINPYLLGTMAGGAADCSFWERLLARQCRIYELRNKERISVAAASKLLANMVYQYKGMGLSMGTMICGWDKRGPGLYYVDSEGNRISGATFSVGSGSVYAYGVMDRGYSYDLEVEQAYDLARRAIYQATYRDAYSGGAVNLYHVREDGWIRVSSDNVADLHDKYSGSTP
The data set can be described thus: Proteolytic activity of purified 20S proteasome, fluorogenic substrate Suc-Leu-Leu-Val-Tyr-AMC. It is filed as biochemical. The conditions noted are these: for IC50 / proteasome (chymotrypsin-like) inhibitory activity, in words: purified rabbit 20S proteasome; for decrease of proteasome inhibition activity relative to comparator compound: 14u, 14v vs linear acetic acid analogues, 14q vs lead compound 10a.
Experimental: The inhibitory activity of the compounds was calculated based on vehicle control). This technique monitors the hydrolytic release of a coumarin species from a synthetic peptide substrate.
The assay was conducted by using a fluorogenic peptide as substrate to test synthesized compounds for inhibitory activity against the chymotrypsin-like activity of the purified rabbit 20S proteasome. Briefly, 70 ng of purified 20S proteasome was incubated with 20 μM Suc-Leu-Leu-Val-Tyr-AMC for 1 hour at 37° C. in 100 μl of assay buffer (50 mM Tris-HCl, pH 7.6) with or without inhibitors. After incubation, production of hydrolyzed 7-amido-4-methyl-coumarin (AMC) was measured using a WALLAC Victor2 1420 Multilabel Counter with an excitation filter of 355 nm and an emission filter of 460 nm (Perkin Elmer Life Sciences, Turku, Finland). The inhibitory activity of the compounds was calculated based on vehicle control.

Data set [2] has as its target T2, CT-L activity of the proteasome in MCF-7 human breast cancer cells (Homo sapiens, UniProt P20618+P28074).
T2 construct: endogenous in cells; host or cells: MCF-7
Kind of data set: Proteolytic activity in cell lysates of treated intact MCF-7 cells. It is filed as cell-based. The conditions noted are these: intact cells treated 16 h, CT-L measured in cell lysates; two determinations where two values. The procedure: Human MCF-7 breast cancer cells were cultured in DMEM medium containing 10% fetal calf serum (FCS) and 100 units/ml of penicillin and 100 μg/ml of streptomycin. Cells were maintained at 37° C. in a humidified incubator in an atmosphere of 5% CO2. Cells were treated with different concentrations of PI-083, YG1-080, YG1-075, HL2-090-2, HL2-090-4, HL2-090-6, and HL2-090-9 or vehicle control (DMSO) for 16 h.
Intact cells were treated with compounds and lysates prepared as described above. Cell lysates (5 μg) was incubated with 20 μM Suc-Leu-Leu-Val-Tyr-AMC for the CT-L activity for 1 h at 37° C. in 100 μl of assay buffer (50 mM Tris-HCl, pH 7.6). After incubation, production of hydrolyzed 7-amido-4-methyl-coumarin (AMC) groups was measured using a WALLAC Victor^2 1420 Multilabel Counter with an excitation filter of 355 nm and an emission filter of 460 nm (Perkin Elmer Life Sciences, Turku, Finland).

The test system of data set [3] is MCF-7 breast cancer cells. The data set can be described thus: MTT metabolism assay. Conditions: MCF-7, 72 h (Table 6), read-out: IC50 for cell viability measured by MTT assay in MCF-7 human breast cancer cells. It counts as cell-based, human. How it is done: Cells were plated in 96-well plates in 100 μl medium and allowed to attach overnight. […] Media was aspirated after 24 or 72 hours and replaced with 100 μl complete media containing 1 mg/ml MTT and incubated for three hours at 37° C. in 5% CO2 humidified incubator. Media was then aspirated and DMSO was added. Cells were incubated for 10 min at room temperature while shaking, and the absorbance was determined at 540 nm using a μQuant spectrophotometric plate reader (Bio-TEK, Winooski, Vt.).
Cells were plated in 96-well plates in 100 μl medium and allowed to attach overnight. Cells were then incubated for 72 h with varying concentrations of PI-083, YG1-080, YG1-075, HL2-090-2, HL2-090-4, HL2-090-6, and HL2-090-9 or vehicle control (DMSO). Media was aspirated and replaced with 100 μl complete media containing 1 mg/ml MTT and incubated for three hours at 37° C. in 5% CO2 humidified incubator. Media was then aspirated and DMSO was added. Cells were incubated for 10 min at room temperature while shaking, and the absorbance was determined at 540 nm using a μQuant spectrophotometric plate reader (Bio-TEK, Winooski, Vt.).

[4] abbreviates: hydronaphthoquinone sulfonamides (Table 9), read-out: IC50 (μM), inhibition of chymotrypsin-like activity.
[5] abbreviates: PI-083 derivatives (Table 7, naphthoquinone library), read-out: IC50 (μM) Chymotrypsin-like activity.

Like-named read-outs stand apart in the source and are kept apart here. Where only a bound is given, the exact number is not on record here.

The IC50 is the concentration that gives 50% inhibition. Take `COC(=O)CCSc1cc(NS(=O)(=O)c2cc(Cl)c(Cl)s2)c2ccccc2c1O` [Compound 14m, Methyl-3-(4-(4,5-dichlorothiophene-2-sulfonamido)-1-hydroxynaphthalen-2-ylthio)propanoate]: the IC50 in data set [1] (setting [4]) worked out at 1.18 ± 0.3 µM.
One may read the melting point as the temperature, or range, at which the solid turns liquid. Compound `O=C1C(Cl)=C(Nc2ccc(S(=O)(=O)Nc3nccs3)cc2)C(=O)c2ccccc21` [Compound 2s, 4-(3-chloro-1,4-dioxo-1,4-dihydronaphthalen-2-ylamino)-N-(thiazol-2-yl)benzene-sulfonamide] displayed a melting point of 286 to 288 °C. In data set [1] (setting [5]), the half-maximal inhibitory concentration (IC50) turned out to be 3.3 µM. In data set [2], this compound yielded an IC50 above 10 µM.
As to `O=S(=O)(Nc1ccc(O)c2ccccc12)c1cccs1` [Compound 3, N-(4-hydroxynaphthalen-1-yl)thiophene-2-sulfonamide], the “proteasome (chymotrypsin-like) inhibitory activity, in words” value in data set [1] is given as “loss of the inhibitory activity”.
The same measure, in the same setting: for `CCSc1cc(NS(=O)(=O)c2cccs2)c2ccccc2c1O` [Compound 14j, N-(3-(ethylthio)-4-hydroxynaphthalen-1-yl)thiophene-2-sulfonamide] the value was “the inhibitory activity totally lost”.
As for `O=C(O)c1ccccc1Sc1cc(NS(=O)(=O)c2ccc(-c3ccccc3)cc2)c2ccccc2c1O` [Compound 14t, 2-(4-(biphenyl-4-ylsulfonamido)-1-hydroxynaphthalen-2-ylthio)benzoic acid], the IC50 in data set [1] (setting [4]) stood at 2.19 ± 0.23 µM.
Still for that read-out and setting: for `COC(=O)CCSc1cc(NS(=O)(=O)c2cccs2)c2ccccc2c1O` [Compound 9b, Methyl 3-(1-hydroxy-4-(thiophene-2-sulfonamido)naphthalen-2-ylthio)propanoate] the value was 4.99 ± 2.08 µM.
Regarding `O=C(O)CS(=O)(=O)c1cc(NS(=O)(=O)c2cccs2)c2ccccc2c1O` [Compound 10f, 2-(1-hydroxy-4-(thiophene-2-sulfonamido)naphthalen-2-ylsulfonyl)acetic acid], the “proteasome (chymotrypsin-like) inhibitory activity, in words” value in data set [1] is listed as “diminished the inhibitory activity”.
Take `Cc1nnc(NS(=O)(=O)c2ccc(NC3=C(Cl)C(=O)c4ccccc4C3=O)cc2)s1` [Compound 2f, 4-(3-chloro-1,4-dioxo-1,4-dihydronaphthalen-2-ylamino)-N-(5-methyl-1,3,4-thiadiazol-2-yl)benzenesulfonamide]: the melting point was 220 °C (dec.). In addition, the IC50 in data set [1] (setting [5]) turned out to be 3.9 µM. This compound yielded an IC50 in data set [2] above 10 µM.
As to `O=C(O)CSc1cc(NS(=O)(=O)c2ccc(Cl)cc2)c2ccccc2c1O` [Compound 14p, 2-(4-(4-chlorophenylsulfonamido)-1-hydroxynaphthalen-2-ylthio)acetic acid], the IC50 in data set [1] (setting [4]) is 3.75 ± 0.3 µM.
Still for that read-out and setting: for `O=C(O)CSc1cc(NS(=O)(=O)c2cc(Cl)c(Cl)s2)c2ccccc2c1O` [Compound 14n, 2-(4-(4,5-dichlorothiophene-2-sulfonamido)-1-hydroxynaphthalen-2-ylthio)acetic acid] the value was 2.07 ± 0.55 µM.
For the compound `O=S(=O)(Nc1cc(Sc2ncn[nH]2)c(O)c2ccccc12)c1cccs1` [Compound 14e, N-(3-(1H-1,2,4-triazol-5-ylthio)-4-hydroxynaphthalen-1-yl)thiophene-2-sulfonamide], in data set [1], the “proteasome (chymotrypsin-like) inhibitory activity, in words” value is listed as “comparable inhibition potency against proteasome to the lead compound”.
In turn, `O=C1C(Cl)=C(Nc2ccc(S(=O)(=O)Nc3cnn(-c4ccccc4)c3)cc2)C(=O)c2ccccc21` [Compound 2b, 4-(3-chloro-1,4-dioxo-1,4-dihydronaphthalen-2-ylamino)-N-(1-phenyl-1H-pyrazol-4-yl)benzenesulfonamide] returned a melting point of 230 to 231 °C. Moreover, the IC50 in data set [1] (setting [5]) is 7.4 µM. In data set [2], the half-maximal inhibitory concentration (IC50) was above 10 µM.
For the compound `O=S(=O)(Nc1cc(SCCO)c(O)c2ccccc12)c1cccs1` [Compound 14k, N-(4-hydroxy-3-(2-hydroxyethylthio)naphthalen-1-yl)thiophene-2-sulfonamide], the “proteasome (chymotrypsin-like) inhibitory activity, in words” value in data set [1] is on record as “the inhibitory activity totally lost”.
With `O=C(O)CSc1cc(NS(=O)(=O)c2cccs2)c2ccccc2c1O` [Compound 10a, 2-(1-hydroxy-4-(thiophene-2-sulfonamido)naphthalen-2-ylthio)acetic acid], the IC50 in data set [1] (hydronaphthoquinone sulfonamides (Table 9), listed as HLM-008182, read-out: IC50 (μM), inhibition of chymotrypsin-like activity) is 0.65 ± 0.4 µM; in data set [1] (setting [4]), 1.3 ± 0.76 µM; in data set [3] (Homo sapiens, MCF7, 72 h), 7.67 ± 1.61 µM; in data set [3], 10.9 ± 2.77 µM. The “proteasome (chymotrypsin-like) inhibitory activity, in words” value in data set [1] is on record as “comparable proteasome inhibition activity to the commercial sample HLM-008182”.
Regarding `CCOC(=O)CSc1cc(NS(=O)(=O)c2ccc([N+](=O)[O-])cc2)c2ccccc2c1O` [Compound 9e, Ethyl 2-(1-hydroxy-4-(4-nitrophenylsulfonamido)naphthalen-2-ylthio)acetate], the IC50 in data set [1] (setting [4]) worked out at 3.57 ± 1.53 µM.
Take `CC(Sc1cc(NS(=O)(=O)c2ccc(Cl)cc2)c2ccccc2c1O)C(=O)O` (centres unmarked) [Compound 14u, 2-(4-(4-chlorophenylsulfonamido)-1-hydroxynaphthalen-2-ylthio)propanoic acid]: in data set [1], the “decrease of proteasome inhibition activity relative to comparator compound” value is reported as around 2 fold. In addition, the IC50 in data set [1] (setting [4]) turned out to be 8.57 ± 0.67 µM.
Consider `CCOC(=O)CSc1cc(NS(=O)(=O)c2cccs2)c2ccccc2c1O` [Compound 9a, Ethyl 2-(1-hydroxy-4-(thiophene-2-sulfonamido)naphthalen-2-ylthio)acetate], for which the IC50 in data set [1] (setting [4]) worked out at 7.33 ± 2.82 µM.
Consider `CC(Sc1cc(NS(=O)(=O)c2ccc3ccccc3c2)c2ccccc2c1O)C(=O)O` (centres unmarked) [Compound 14v, 2-(1-hydroxy-4-(naphthalene-2-sulfonamido)naphthalen-2-ylthio)propanoic acid], for which, in data set [1], the “decrease of proteasome inhibition activity relative to comparator compound” value is given as around 2 fold. Moreover, in data set [1] (setting [4]), the IC50 came to 9.11 ± 0.47 µM.
Turning to `CCOC(=O)CSc1cc(NS(=O)(=O)c2ccccc2)c2ccccc2c1O` [Compound 9c, Ethyl 2-(1-hydroxy-4-(phenylsulfonamido)naphthalen-2-ylthio)acetate], in data set [1] (setting [4]), the IC50 was 5.27 ± 2.23 µM.
In the case of `O=C(O)COc1cc(NS(=O)(=O)c2cccs2)c2ccccc2c1O` [Compound 10d, 2-(1-hydroxy-4-(thiophene-2-sulfonamido)naphthalen-2-yloxy)acetic acid], in data set [1], the “proteasome (chymotrypsin-like) inhibitory activity, in words” value is “diminished the inhibitory activity”.
As for `Cn1nnnc1Sc1cc(NS(=O)(=O)c2cccs2)c2ccccc2c1O` [Compound 14d, N-(4-hydroxy-3-(1-methyl-1H-tetrazol-5-ylthio)naphthalen-1-yl)thiophene-2-sulfonamide], the IC50 in data set [1] (setting [4]) was determined as 4.25 ± 2.13 µM. Moreover, in data set [1], the “proteasome (chymotrypsin-like) inhibitory activity, in words” value is listed as “comparable inhibition potency against proteasome to the lead compound”.
Turning to `O=C(O)CCSc1cc(NS(=O)(=O)c2cccs2)c2ccccc2c1O` [Compound 10b, 3-(1-hydroxy-4-(thiophene-2-sulfonamido)naphthalen-2-ylthio)propanoic acid], the IC50 in data set [1] (setting [4]) is above 10 µM.
As to `O=C(O)CSc1cc(NS(=O)(=O)c2ccc3ccccc3c2)c2ccccc2c1O` [Compound 14q, 2-(1-hydroxy-4-(naphthalene-2-sulfonamido)naphthalen-2-ylthio)acetic acid], in data set [1], the “decrease of proteasome inhibition activity relative to comparator compound” value was found to be 3 fold. Also, the IC50 in data set [1] (setting [4]) was 4.83 ± 0.79 µM.
On to `CN1CCN(C2=C(Nc3ccc(S(=O)(=O)Nc4ccccn4)cc3)C(=O)c3ccccc3C2=O)CC1` [Compound 3c, 4-(3-(4-methylpiperazin-1-yl)-1,4-dioxo-1,4-dihydronaphthalen-2-ylamino)-N-(pyridin-2-yl)-benzenesulfonamide], for which the melting point lay within 222 to 224 °C.
